Usually IC50 stands for the concentration needed to halve the response being measured.

This experiment deals with T1, HIV integrase (Human immunodeficiency virus type 1 group M subtype B, UniProt P12497, F1332H).
T1 construct: HIV integrase full length gene; made in house; host or cells: Escherichia coli BL21(DE3)
Put plainly: Determination of enzyme (HIV integrase) inhibitory activity (strand transfer, microtiter plate, absorbance at 450 nm). As to conditions: recombinant HIV integrase (F185H) expressed in E. coli; donor DNA on streptavidin plate, digoxigenin target DNA; 37° C. The class given is biochemical, HIV (Human Immunodeficiency Virus (type 1)). Here is the method:
The following explains evaluation methods of the HIV integrase inhibitory activity of the compound of the present invention.
(i) Construction of Recombinant Integrase Gene Expression System
(ii) Production and Purification of Integrase Protein
Escherichia coli recombinant BL21(DE3) transformed with plasmid pET21a-IN-F185H obtained in (i) was shake cultured at 30° C. in a liquid medium containing ampicillin. When the culture reached the logarithmic growth phase, isopropyl-β-D-thiogalactopyranoside was added to promote expression of integrase gene. The culture was continued for 3 hrs to promote accumulation of the integrase protein. The recombinant E. coli was collected in pellets by centrifugal separation and preserved at −80° C.
The E. coli was suspended in Lysis buffer (20 mM HEPES (pH 7.5), 5 mM DTT, 10 mM CHAPS, 10% glycerol) containing 1M sodium chloride and subjected to repeat pressurization and depressurization for rupture, and centrifugal separation at 4° C., 40,000×g, 60 min to recover a water-soluble fraction (supernatant). This was diluted 10-fold with Lysis buffer free of sodium chloride, mixed with SP-Sepharose (Pharmacia Corporation) and stirred at 4° C. for 60 min to allow adsorption of integrase protein to the resin. The resin was washed with Lysis buffer containing 100 mM sodium chloride and the integrase protein was eluted with Lysis buffer containing 1M sodium chloride.
The eluted integrase protein solution was applied to a Superdex 75 (Pharmacia Corporation) column for gel filtration. The protein was eluted with Lysis buffer containing 1M sodium chloride.
The obtained fractions of the integrate protein were collected and preserved at −80° C.
(iii) Preparation of DNA Solution
The following DNA synthesized by Greiner was dissolved in TE buffer (10 mM Tris-hydrochloric acid (pH 8.0), 1 mM EDTA) and mixed with donor DNA, target DNA, each complementary strand (+ and − strands) to 1 μM. The mixture was heated at 95° C. for 5 min, 80° C. for 10 min, 70° C. for 10 min, 60° C. for 10 min, 50° C. for 10 min and 40° C. for 10 min and preserved at 25° C. to give a double stranded DNA, which was used for the test. Donor DNA (− strand having biotin attached to the 5′ terminal)
(iv) Determination of Enzyme (HIV Integrase) Inhibitory activity
The donor DNA was diluted with TE buffer to 10 nM, of which 50 μl was added to each well of streptavidin-coated microtiter plate (Roche) and allowed to adsorb at 37° C. for 60 min. The DNA was washed with phosphate buffer (Dulbecco PBS, Sanko Junyaku Co., Ltd.) containing 0.1% Tween 20 and phosphate buffer. Then, a reaction mixture (70 μl) having the following composition, a test substance (10 μl) diluted with the reaction mixture and […] integrase protein (10 μl) were added to each well and reacted at 37° C. for 60 min.
Then, 50 nM target DNA (1.0 μl) was added, reacted at 37° C. for 10 min and washed with phosphate buffer containing 0.1% Tween 20 to stop the reaction.
Then, 100 mU/ml peroxidase labeled anti-digoxigenin antibody solution (Roche, 100 μl) was added, and the mixture was reacted at 37° C. for 60 min, followed by washing with phosphate buffer containing 0.1% Tween 20.
A peroxidase color solution (Bio Rad, 100 μl) was added and allowed to react at room temperature for 4 min. The color reaction was stopped by adding 1N sulfuric acid (100 μl). The absorbance at 450 nm was measured.
The HIV integrase inhibitory activity (IC50) of the compound of the present invention was calculated from the inhibition rate according to the following formula. […] Evaluation of Antiviral Activity

`CCOc1cc(Cc2cccc(Cl)c2F)cc2c(=O)c(C(=O)O)cn([C@@H](C)CO)c12` [Example 3-67, (S)-6-(3-Chloro-2-fluorobenzyl)-8-ethoxy-1-(2-hydroxy-1-methylethyl)-4-oxo-1,4-dihydroquinoline-3-carboxylic acid]: the IC50 is 6.4 nM. As for `O=C(O)c1cn(CCO)c2cc(F)c(Cc3cccc(Cl)c3Cl)cc2c1=O` [Example 4-9, 6-(2,3-Dichlorobenzyl)-7-fluoro-1-(2-hydroxyethyl)-4-oxo-1,4-dihydroquinoline-3-carboxylic acid], the IC50 is 21 nM. As to `CCOc1cc(Cc2cccc(Cl)c2F)cc2c(=O)c(C(=O)O)cn([C@@H](CC)CO)c12` [Example 4-21, (S)-6-(3-Chloro-2-fluorobenzyl)-8-ethoxy-1-[1-(hydroxymethyl)propyl]-4-oxo-1,4-dihydroquinoline-3-carboxylic acid], the IC50 was 4.5 nM. The figure for `CCOC(=O)NCCn1cc(C(=O)O)c(=O)c2cc(Cc3cccc(Cl)c3Cl)ccc21` [Example 1-49, 6-(2,3-Dichlorobenzyl)-1-(2-ethoxycarbonylaminoethyl)-4-oxo-1,4-dihydroquinoline-3-carboxylic acid] is 53 nM; for `CCCn1cc(C(=O)O)c(=O)c2cc(Cc3cccc(Cl)c3Cl)ccc21` [Example 1-38, 6-(2,3-Dichlorobenzyl)-4-oxo-1-propyl-1,4-dihydroquinoline-3-carboxylic acid] it is 170 nM. The figure for `CNS(=O)(=O)Cn1cc(C(=O)O)c(=O)c2cc(Cc3cccc(Cl)c3Cl)ccc21` [Example 1-71, 6-(2,3-Dichlorobenzyl)-1-methylsulfamoylmethyl-4-oxo-1,4-dihydroquinoline-3-carboxylic acid] is 13 nM; for `CCNc1cc(Cc2cccc(Cl)c2F)cc2c(=O)c(C(=O)O)cn(CCO)c12` [Example 3-55, 6-(3-Chloro-2-fluorobenzyl)-8-ethylamino-1-(2-hydroxyethyl)-4-oxo-1,4-dihydroquinoline-3-carboxylic acid] it is 8.7 nM. The figure for `CC[C@@H](CO)n1cc(C(=O)O)c(=O)c2cc(Cc3cccc(Cl)c3F)c(OC(C)C)cc21` [Example 3-72, (S)-6-(3-Chloro-2-fluorobenzyl)-1-[1-(hydroxymethyl)propyl]-7-isopropyloxy-4-oxo-1,4-dihydroquinoline-3-carboxylic acid] is 3.8 nM; for `CNn1cc(C(=O)O)c(=O)c2cc(Cc3cccc(Cl)c3Cl)ccc21` [Example 2-7, 6-(2,3-Dichlorobenzyl)-1-methylamino-4-oxo-1,4-dihydroquinoline-3-carboxylic acid] it is 79 nM. As for `CC(C)(O)Cn1cc(C(=O)O)c(=O)c2cc(Cc3cccc(Cl)c3Cl)ccc21` [Example 1-47, 6-(2,3-Dichlorobenzyl)-1-(2-hydroxy-2-methylpropyl)-4-oxo-1,4-dihydroquinoline-3-carboxylic acid], the IC50 came out at 98 nM. The value for `O=C(O)c1cn(CCO)c2ccc(Cc3cccc([N+](=O)[O-])c3)cc2c1=O` [Example 1-67] was 790 nM; that for `CS(=O)(=O)Cn1cc(C(=O)O)c(=O)c2cc(Cc3cccc(Cl)c3Cl)ccc21` [Example 1-69, 6-(2,3-Dichlorobenzyl)-1-methanesulfonylmethyl-4-oxo-1,4-dihydroquinoline-3-carboxylic acid] was 74 nM; that for `CN(C)S(=O)(=O)Cn1cc(C(=O)O)c(=O)c2cc(Cc3c(F)cccc3Cl)ccc21` [Example 1-77, 6-(2-Chloro-6-fluorobenzyl)-1-dimethylsulfamoylmethyl-4-oxo-1,4-dihydroquinoline-3-carboxylic acid] was 63 nM. The figure for `CCC[C@@H](CO)n1cc(C(=O)O)c(=O)c2cc(Cc3cccc(Cl)c3F)c(OC(C)C)cc21` [Example 4-35] is 4.3 nM.

Turning to `CNc1cc2c(cc1Cc1cccc(Cl)c1F)c(=O)c(C(=O)O)cn2CCO` [Example 3-65, 6-(3-Chloro-2-fluorobenzyl)-7-methylamino-1-(2-hydroxyethyl)-4-oxo-1,4-dihydroquinoline-3-carboxylic acid], the IC50 came to 15 nM. The value for `Cc1cccc(Cc2ccc3c(c2)c(=O)c(C(=O)O)cn3CCO)c1Cl` [Example 1-79, 6-(2-Chloro-3-methylbenzyl)-1-(2-hydroxyethyl)-4-oxo-1,4-dihydroquinoline-3-carboxylic acid] was 77 nM; that for `CN(C)/C=N/c1cc2c(cc1Cc1cccc(Cl)c1F)c(=O)c(C(=O)O)cn2CCO` [Example 3-50, 6-(3-Chloro-2-fluorobenzyl)-7-(dimethylaminomethyleneamino)-1-(2-hydroxyethyl)-4-oxo-1,4-dihydroquinoline-3-carboxylic acid] was 18 nM; that for `CC[C@@H](CO)n1cc(C(=O)O)c(=O)c2cc(Cc3cccc(Cl)c3F)cc(OC)c21` [Example 3-79, (S)-6-(3-Chloro-2-fluorobenzyl)-1-[1-(hydroxymethyl)propyl]-8-methoxy-4-oxo-1,4-dihydroquinoline-3-carboxylic acid] was 6.7 nM. The figure for `O=C(O)c1cn(CCO)c2ccc(Cc3cccc(Cl)c3)cc2c1=O` [Example 1-31] is 170 nM; for `O=C(O)c1cn(CCO)c2ccc(Cc3cccc(F)c3Cl)cc2c1=O` [Example 1-66, 6-(2-Chloro-3-fluorobenzyl)-1-(2-hydroxyethyl)-4-oxo-1,4-dihydroquinoline-3-carboxylic acid] it is 49 nM. The value for `CCCOc1cc2c(cc1Cc1cccc(Cl)c1F)c(=O)c(C(=O)O)cn2CCO` [Example 3-49, 6-(3-Chloro-2-fluorobenzyl)-1-(2-hydroxyethyl)-4-oxo-7-propyloxy-1,4-dihydroquinoline-3-carboxylic acid] was 7.9 nM. In the case of `O=C(O)c1cn(CCO)c2ccc(Cc3cccc4ccccc34)cc2c1=O` [Example 1-11, 1-(2-Hydroxyethyl)-6-naphthalen-1-ylmethyl-4-oxo-1,4-dihydroquinoline-3-carboxylic acid], the IC50 came out at 180 nM. The figure for `C[C@@H](CO)n1cc(C(=O)O)c(=O)c2cc(Cc3cccc(Cl)c3F)ccc21` [Example 3-23, (S)-6-(3-Chloro-2-fluorobenzyl)-1-(2-hydroxy-1-methylethyl)-4-oxo-1,4-dihydroquinoline-3-carboxylic acid] is 7.2 nM; for `O=C(O)c1cn(CCO)c2ccc(Cc3c(F)cccc3Cl)cc2c1=O` [Example 1-64] it is 56 nM. The figure for `CCC[C@@H](CO)n1cc(C(=O)O)c(=O)c2cc(Cc3cccc(Cl)c3F)cc(OC(C)C)c21` [Example 4-47, (S)-6-(3-Chloro-2-fluorobenzyl)-1-[1-(hydroxymethyl)butyl]-8-isopropyloxy-4-oxo-1,4-dihydroquinoline-3-carboxylic acid] is 2.3 nM. The figure for `O=C(O)c1cn(CC(O)CO)c2ccc(Cc3cccc(Cl)c3Cl)cc2c1=O` (stereo not shown) [Example 1-74, 6-(2,3-Dichlorobenzyl)-1-(2,3-Dihydroxypropyl)-4-oxo-1,4-dihydroquinoline-3-carboxylic acid] is 98 nM. Turning to `O=C(O)c1cn(CCO)c2ccc(Cc3ccccc3Br)cc2c1=O` [Example 1-80, 6-(2-Bromobenzyl)-1-(2-hydroxyethyl)-4-oxo-1,4-dihydroquinoline-3-carboxylic acid], the IC50 came to 350 nM. As to `CCOc1cc2c(cc1Cc1cccc(Cl)c1F)c(=O)c(C(=O)O)cn2[C@H](CO)C(C)(C)C` [Example 4-31, (S)-6-(3-Chloro-2-fluorobenzyl)-7-ethoxy-1-[2,2-dimethyl-1-(hydroxymethyl)propyl]-4-oxo-1,4-dihydroquinoline-3-carboxylic acid], the IC50 is 2.1 nM.
